# Target: T1, KRAS G12C 1-169, his-tagged protein, GDP-loaded (Homo sapiens, UniProt P01116, G12C)
# T1 construct: KRAS G12C 1-169, his-tagged protein, GDP-loaded
# Assay: Biochemical assay: covalent binding (modification %) to KRAS G12C by mass spectrometry
# Conditions: 2 hour incubation period, 10 μM compound (compounds 1-20)
# Procedure: Test compounds were prepared as 10 mM stock solutions in DMSO (Fisher cat# BP-231-100). KRAS G12C 1-169, his-tagged protein, GDP-loaded was diluted to 2 μM or 0.5 μM in buffer (20 mM Hepes, 150 mM NaCl, 1 mM MgCl2). Compounds were tested for activity as follows:
# Compounds were diluted to 50× final test concentration in DMSO in 96-well storage plates. Compound stock solutions were vortexed before use and observed carefully for any sign of precipitation. Dilutions were as follow: • For 100 μM final compound concentration, compounds were diluted to 5000 μM (5 μL 10 mM compound stock+5 μL DMSO and mixed well by pipetting. • For 30 μM final compound concentration, compounds were diluted to 1500 μM (3 μL 10 mM compound stock+17 μL DMSO) and mixed well by pipetting. • For 10 μM final compound concentration, compounds were diluted to 500 μM (2 μL 10 mM compound stock+38 μL DMSO) and mixed well by pipetting. 49 μL of the stock protein solution was added to each well of a 96-well PCR plate (Fisher cat#1423027). 1 μl of the diluted 50× compounds were added to appropriate wells in the PCR plate using 12-channel pipettor. Reactions were mixed carefully and thoroughly by pipetting up/down with a 200 μL multi-channel pipettor. The plate was sealed well with aluminum plate seal, and stored in drawer at room temperature for 10 minutes, 30 minutes, 2 hours or 24 hours. 5 μL of 2% formic acid (Fisher cat# A117) in de-ionized H2O was then added to each well followed by mixing with a pipette. The plate was then resealed with aluminum seal and stored on dry ice until analyzed as described below.
# The above described assays were analyzed by mass spectrometry according to one of the following two procedures:
# The MS instrument is set to positive polarity, 2 GHz resolution, and low mass (1700) mode and allowed to equilibrate for 30 minutes. The instrument is then calibrated, switched to acquisition mode and the appropriate method loaded.
# After another 30 minute equilibration time, a blank batch (i.e., buffer) is run to ensure equipment is operating properly. The samples are thawed at 37° C. for 10 minutes, briefly centrifuged, and transfer to the bench top. Wells A1 and H12 are spiked with 1 μL 500 μM internal standard peptide, and the plates centrifuged at 2000×g for 5 minutes. The method is then run and masses of each individual well recorded.
# The masses (for which integration data is desired) for each well are pasted into the platemap and exported from the analysis. Masses for the internal standards are exported as well. The data at 50 ppm is extracted for the +19 charge state, and identity of well A1 is assigned using the internal standard spike and integrated. Peak data is exported as a TOF list and the above steps are repeated individually, for the +20, 21, 22, 23, 24, and 25 charge states.
# The masses and peak intensities of KRAS G12C protein species were measured using a Dionex RSLCnano system (Thermo Scientific) connected to a Q Exactive Plus mass spectrometer (Thermo Scientific).
# […] of sample was each loaded onto a Aeris™ 3.6 μm WIDEPORE C4 200 Å, LC Column 50×2.1 mm column maintained at 40° C. at a flow rate of 600 μL/min with 20% Solvent A (0.1% formic acid in H2O) and 80% Solvent B (0.1% formic acid in acetonitrile). The liquid chromatography conditions were 20% solvent B for 1 minute, 20% to 60% solvent B for 1.5 minutes, 60% to 90% solvent for 0.5 minute, 90% solvent B for 0.2 minute, 90% to 20% solvent B for 0.2 minute, and then equilibrated for 1.6 minute before the following sample injection. The flow rate was maintained at 600 μL/min throughout the sample analysis.
# The mass spectrometer was operated in profile mode at a resolution of 17500, 5 microscans, using 50 msec max injection time and an AGC target of 1×10^6, and a full mass range from 800-1850 m/z was recorded. The HCD trapping gas was optimized for maximum sensitivity for intact proteins. […]
row,SMILES,Binding %
1,"C=CC(=O)N1CC(N2Cc3cc(-c4cc(O)cc5ccccc45)ccc3C2=O)C1 [Compound 1, 2-(1-acryloylazetidin-3-yl)-5-(3-hydroxynaphthalen-1-yl)isoindolin-1-one]",++ (++ indicates binding activity from 10 to 50%)
2,"C=CC(=O)N1CC(N2Cc3ccc(-c4cc(O)cc5ccccc45)cc3C2=O)C1 [Compound 2, 2-(1-acryloylazetidin-3-yl)-6-(3-hydroxynaphthalen-1-yl)isoindolin-1-one]",+++ (+++ indicates binding activity greater than 50%)
3,"C=CC(=O)N1CC(N2Cc3ccc(-c4cc(O)cc5ccccc45)cc3CC2=O)C1 [Compound 3, 2-(1-acryloylazetidin-3-yl)-6-(3-hydroxynaphthalen-1-yl)-1,4-dihydroisoquinolin-3(2H)-one]",+++ (+++ indicates binding activity greater than 50%)
4,"C=CC(=O)N1CCCC(N2Cc3ccc(-c4cc(O)cc5ccccc45)cc3C2=O)C1 (centres unmarked) [Compound 4, 2-(1-acryloylpiperidin-3-yl)-6-(3-hydroxynaphthalen-1-yl)isoindolin-1-one]",+ (+ indicates binding activity up to 10%)
5,"C=CC(=O)N1CC(N2Cc3ccc(-c4c(C)ccc5[nH]ncc45)cc3C2=O)C1 [Compound 5, 2-(1-acryloylazetidin-3-yl)-6-(5-methyl-1H-indazol-4-yl)isoindolin-1-one]",++ (++ indicates binding activity from 10 to 50%)
6,"C=CC(=O)N1CC(N2Cc3ccc(-c4c(O)cccc4F)cc3C2=O)C1 [Compound 6, 2-(1-acryloylazetidin-3-yl)-6-(2-fluoro-6-hydroxyphenyl)isoindolin-1-one]",+ (+ indicates binding activity up to 10%)
7,"C=CC(=O)N1CCC(N2Cc3ccc(-c4cc(O)cc5ccccc45)cc3C2=O)CC1 [Compound 7, 2-(1-acryloylpiperidin-4-yl)-6-(3-hydroxynaphthalen-1-yl)isoindolin-1-one]",+ (+ indicates binding activity up to 10%)
8,"C=CC(=O)N1CC(N2Cc3ccc(-c4c(C)ccc5cn[nH]c45)cc3C2=O)C1 [Compound 8, 2-(1-acryloylazetidin-3-yl)-6-(6-methyl-1H-indazol-7-yl)isoindolin-1-one]",+ (+ indicates binding activity up to 10%)
9,"C=CC(=O)N1CCC(N2Cc3ccc(-c4cc(O)cc5ccccc45)cc3C2=O)C1 (centres unmarked) [Compound 9, 2-(1-acryloylpyrrolidin-3-yl)-6-(3-hydroxynaphthalen-1-yl)isoindolin-1-one]",++ (++ indicates binding activity from 10 to 50%)
10,"C=CC(=O)N1CC(N2Cc3ccc(-c4cc(O)ccc4Cl)cc3C2=O)C1 [Compound 10, 2-(1-acryloylazetidin-3-yl)-6-(2-chloro-5-hydroxyphenyl)isoindolin-1-one]",+++ (+++ indicates binding activity greater than 50%)
11,"C=CC(=O)N1CC(N2Cc3ccc(-c4cc(O)ccc4C)cc3C2=O)C1 [Compound 11, 2-(1-acryloylazetidin-3-yl)-6-(5-hydroxy-2-methylphenyl)isoindolin-1-one]",++ (++ indicates binding activity from 10 to 50%)
12,"C=CC(=O)N1CC(N2Cc3c(Cl)cc(-c4cc(O)cc5ccccc45)cc3C2=O)C1 [Compound 12, 2-(1-acryloylazetidin-3-yl)-4-chloro-6-(3-hydroxynaphthalen-1-yl)isoindolin-1-one]",+++ (+++ indicates binding activity greater than 50%)
13,"C=CC(=O)N1CC(N2Cc3c(Cl)cc(-c4cc(O)ccc4Cl)cc3C2=O)C1 [Compound 13, 2-(1-acryloylazetidin-3-yl)-4-chloro-6-(2-chloro-5-hydroxyphenyl)isoindolin-1-one]",++ (++ indicates binding activity from 10 to 50%)
14,"C=CC(=O)N1CC(N2Cc3c(C)cc(-c4cc(O)cc5ccccc45)cc3C2=O)C1 [Compound 14, 2-(1-acryloylazetidin-3-yl)-6-(3-hydroxynaphthalen-1-yl)-4-methylisoindolin-1-one]",+++ (+++ indicates binding activity greater than 50%)

# — patent US10377743B2, “Inhibitors of RAS and methods of use thereof” (Araxes Pharma LLC, priority 2016, dated 2019)
